Test results from patent US9365551B2, “2-(benzyloxy) benzamides as LRRK2 kinase inhibitors” (Glaxo Group Limited, priority 2010, dated 2016).

Columns and labels:
[1] = molecular target: T1, 6His-Tev-LRRK2 (1326-2527) (Homo sapiens, UniProt Q5S007); assay: LRRK2 AlphaScreen desensitised protein substrate assay; assay type: biochemical; conditions: mean pIC50 of multiple test results
T1 construct: A LRRK2 cDNA encoding residues 1326-2527 was received from Dundee University; made in house; host or cells: Spodoptera frugiperda (Sf9) insect cells, baculovirus (pFB-HTb)
T1 sequence (Q5S007 1326-2527): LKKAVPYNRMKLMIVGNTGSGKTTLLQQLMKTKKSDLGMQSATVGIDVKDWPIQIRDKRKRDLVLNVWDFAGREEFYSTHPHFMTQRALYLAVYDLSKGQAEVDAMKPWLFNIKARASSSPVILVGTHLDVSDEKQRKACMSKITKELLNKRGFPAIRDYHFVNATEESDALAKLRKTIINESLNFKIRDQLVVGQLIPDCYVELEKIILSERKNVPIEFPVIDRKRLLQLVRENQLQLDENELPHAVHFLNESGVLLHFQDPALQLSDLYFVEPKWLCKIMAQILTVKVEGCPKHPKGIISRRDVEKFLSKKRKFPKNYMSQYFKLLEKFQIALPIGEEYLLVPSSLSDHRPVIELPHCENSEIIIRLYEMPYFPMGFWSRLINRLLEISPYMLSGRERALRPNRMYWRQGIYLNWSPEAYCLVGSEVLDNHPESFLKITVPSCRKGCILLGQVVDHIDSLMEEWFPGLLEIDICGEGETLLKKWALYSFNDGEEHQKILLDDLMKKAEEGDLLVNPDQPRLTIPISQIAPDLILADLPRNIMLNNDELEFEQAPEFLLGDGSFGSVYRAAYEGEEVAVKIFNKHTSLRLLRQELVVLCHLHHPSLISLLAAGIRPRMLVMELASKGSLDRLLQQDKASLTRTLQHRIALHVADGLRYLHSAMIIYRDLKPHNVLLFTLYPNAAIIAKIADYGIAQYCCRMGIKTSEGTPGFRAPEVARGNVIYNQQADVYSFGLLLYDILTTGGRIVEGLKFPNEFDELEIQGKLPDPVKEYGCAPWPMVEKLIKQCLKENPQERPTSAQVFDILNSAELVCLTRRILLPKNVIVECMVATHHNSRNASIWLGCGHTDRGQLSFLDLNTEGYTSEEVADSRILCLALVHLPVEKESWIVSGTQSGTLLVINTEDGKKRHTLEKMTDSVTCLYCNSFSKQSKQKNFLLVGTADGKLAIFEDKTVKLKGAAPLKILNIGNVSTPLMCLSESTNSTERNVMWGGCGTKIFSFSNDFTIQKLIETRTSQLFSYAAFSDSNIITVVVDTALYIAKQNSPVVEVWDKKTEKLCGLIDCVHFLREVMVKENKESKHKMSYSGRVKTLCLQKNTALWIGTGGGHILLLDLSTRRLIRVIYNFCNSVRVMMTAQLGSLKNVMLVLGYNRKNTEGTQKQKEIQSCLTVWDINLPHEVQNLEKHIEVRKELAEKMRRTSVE
Method in brief: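 Compounds (1:4 series, top final 30 μM) were preincubated 30 min at room temperature with 6His-Tev-LRRK2 (1326-2527) solution (80 nM) in Hepes pH 7.2, 10 mM MgCl2. Substrate solution held 200 nM GST-PS-Moesin (400-577) and 2 mM ATP, and the reaction ran 20 min. Phospho-Moesin Thr558 was read by AlphaLisa antibody-bead detection after 2 h.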

[2] = molecular target: T1, 6His-Tev-LRRK2 (1326-2527); assay: LRRK2 peptide substrate assay; assay type: biochemical; conditions: mean pIC50 of multiple test results
Method in brief: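 Compound (1:4 series, top 30 μM final) preincubated 30 min at RT with the enzyme solution (80 nM) in pH 7.2 Hepes, 10 mM MgCl2 buffer. Reaction was started with substrate solution (2 μM Biotin-LRRKtide, ATP at Km) and run 1–2 h at RT. Phospho-peptide detected by TR-FRET (Eu/APC, 665/620 nm) after EDTA stop.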

[3] = stated as threshold, read-out: pIC50 in the LRRK2 alphascreen desensitised protein substrate assay (bounds) (converted)
[4] = stated as threshold, read-out: pIC50 in the LRRK2 peptide substrate assay (bounds) (converted)

Structure (SMILES) | IC50 ([1]; GST-PS-Moesin (400-577) substrate, 2 mM ATP, read-out: LRRK2 alphascreen desensitized protein substrate assay (pIC50) (converted)) | IC50 [1, 3] | IC50 ([2]; Biotin-LRRKtide peptide substrate, ATP at Km, read-out: LRRK2 peptide substrate assay (pIC50) (converted)) | IC50 [2, 4]
Cn1cc(-c2cc(C(=O)Nc3cccnc3)c(OCc3ccc(F)cc3F)cc2CN2CCOCC2)cn1 [Example 20, 2-{[(2,4-Difluorophenyl)methyl]oxy}-5-(1-methyl-1H-pyrazol-4-yl)-4-(4-morpholinylmethyl)-N-3-pyridinylbenzamide] | 200 nM | ≤ 316 nM | 63.1 nM | ≤ 100 nM
O=C(Nc1ccnnc1)c1cc(C(F)(F)F)c(C(=O)N2CCOCC2)cc1OCc1ccccc1 [Example 38, 4-(4-Morpholinylcarbonyl)-2-[(phenylmethyl)oxy]-N-4-pyridazinyl-5-(trifluoromethyl)benzamide] | – | ≤ 25100 nM | – | ≤ 1260 nM
